Results: patent US20220279826A1, “OFF-FLAVOR SUPPRESSING AGENT” (AJINOMOTO CO., INC., priority 2019, published 2022)

Legend:
[1] = Sensory evaluation of off-taste suppressing effect in 0.8 wt % potassium chloride aqueous solution (Experimental Examples 1 and 2)
Protocol: Each compound shown in the following Tables 1 to 13 was added to a 0.8 wt % potassium chloride aqueous solution at the concentration (addition concentration) shown in the following Tables 1 to 13 to prepare each evaluation sample.
(§1) Based on the following evaluation criteria, a panel of two experts determined by consensus the intensity of off-tastes (bitter taste, metallic taste, harsh taste, astringent taste) derived from potassium chloride in each evaluation sample, by reference to each potassium chloride aqueous solution adjusted to 0.8 wt %, 0.75 wt %, 0.7 wt %, or 0.65 wt %.
−: intensity of the same level as potassium chloride aqueous solution with potassium chloride concentration of not less than 0.8 wt %
+: intensity of the same level as potassium chloride aqueous solution with potassium chloride concentration of not less than 0.75 wt % and less than 0.8 wt %
++: intensity of the same level as potassium chloride aqueous solution with potassium chloride concentration of not less than 0.7 wt % and less than 0.75 wt %
+++: intensity of the same level as potassium chloride aqueous solution with potassium chloride concentration of not less than 0.65 wt % and less than 0.7 wt %
Each compound shown in the following Table 14 was added to a 0.8 wt % potassium chloride aqueous solution at the concentration (addition concentration) shown in the following Table 14 to prepare each evaluation sample.

[2] = Sensory evaluation in Japanese noodle soup base solution with potassium chloride (0.2 g) (Experimental Example 5); conditions: for off-taste suppressing effect: Japanese noodle soup base solution, potassium chloride 0.2 g; for intensity of off-tastes (bitter taste, metallic taste, harsh taste, astringent taste) derived from potassium chloride: base solution of Table 19
Protocol: Potassium chloride (0.2 g) was added to a commercially available Japanese noodle soup base (manufactured by Yamaki Co., Ltd.) (11.1 g), and dissolved by adding hot water (88.7 g) to prepare a base solution.
Each compound shown in the following Table 19 was added to the base solution prepared above so as to achieve the concentration (addition concentration) shown in the following Table 19 to prepare each evaluation sample.
as §1, with “0.2” for “0.8”, “0.15” for “0.75”, “%” for “%, 0.7 wt %,”, “0.1” for “0.65”

[3] = 0.8 wt % potassium chloride aqueous solution, addition concentration 1000 weight ppb (125 weight ppm with respect to potassium chloride)
[4] = in words, potassium chloride aqueous solutions, Tables 1 to 14
[5] = potassium chloride aqueous solutions, Tables 1 to 14
[6] = 0.8 wt % potassium chloride aqueous solution, addition concentration 100 weight ppb (12.5 weight ppm with respect to potassium chloride)
[7] = 0.8 wt % potassium chloride aqueous solution, addition concentration 500 weight ppb (62.5 weight ppm with respect to potassium chloride)
[8] = 0.8 wt % potassium chloride aqueous solution, addition concentration 50 weight ppb (6.25 weight ppm with respect to potassium chloride)
[9] = 0.8 wt % potassium chloride aqueous solution, addition concentration 1 weight ppb (0.125 weight ppm with respect to potassium chloride)
[10] = 0.8 wt % potassium chloride aqueous solution, addition concentration 5 weight ppb (0.625 weight ppm with respect to potassium chloride)
[11] = 0.8 wt % potassium chloride aqueous solution, addition concentration 10 weight ppb (1.25 weight ppm with respect to potassium chloride)

SMILES	off-taste suppressing effect [1, 3]	off-taste suppressing effect [1, 4]	intensity of off-tastes (bitter taste, metallic taste, harsh taste, astringent taste) derived from potassium chloride [1, 5]	off-taste suppressing effect [1, 6]	also measured
CCCCCC(=O)O [hexanoic acid, reference compound]	− (intensity of the same level as potassium chloride aqueous solution with potassium chloride concentration of not less than 0.8 wt %)	could not be confirmed	did not show changes		
CCCC(=O)O [butyric acid]	+ (intensity of the same level as potassium chloride aqueous solution with potassium chloride concentration of not less than 0.75 wt % and less than 0.8 wt %)		decreased	− (intensity of the same level as potassium chloride aqueous solution with potassium chloride concentration of not less than 0.8 wt %)	off-taste suppressing effect [1, 7]: + (intensity of the same level as potassium chloride aqueous solution with potassium chloride concentration of not less than 0.75 wt % and less than 0.8 wt %)
CCCCCc1ccco1 [2-pentylfuran, reference compound]		could not be confirmed	did not show changes	− (intensity of the same level as potassium chloride aqueous solution with potassium chloride concentration of not less than 0.8 wt %)	
CC(=O)OC1=C(C)OC(C)C1=O (stereo not shown) [4-acetoxy-2,5-dimethyl-3(2H)-furanone]			decreased	++ (intensity of the same level as potassium chloride aqueous solution with potassium chloride concentration of not less than 0.7 wt % and less than 0.75 wt %)	off-taste suppressing effect [1, 8]: + (intensity of the same level as potassium chloride aqueous solution with potassium chloride concentration of not less than 0.75 wt % and less than 0.8 wt %); off-taste suppressing effect [1, 7]: + (intensity of the same level as potassium chloride aqueous solution with potassium chloride concentration of not less than 0.75 wt % and less than 0.8 wt %); off-taste suppressing effect ([2]; addition concentration 100 weight ppb (50 weight ppm with respect to potassium chloride)): + (intensity of the same level as potassium chloride aqueous solution with potassium chloride concentration of not less than 0.15 wt % and less than 0.2 wt %); intensity of off-tastes (bitter taste, metallic taste, harsh taste, astringent taste) derived from potassium chloride [2]: decreased
CC(=O)c1cc(C)oc1C [3-acetyl-2,5-dimethylfuran]			decreased		off-taste suppressing effect [1, 9]: + (intensity of the same level as potassium chloride aqueous solution with potassium chloride concentration of not less than 0.75 wt % and less than 0.8 wt %); off-taste suppressing effect [1, 10]: ++ (intensity of the same level as potassium chloride aqueous solution with potassium chloride concentration of not less than 0.7 wt % and less than 0.75 wt %); off-taste suppressing effect [1, 11]: + (intensity of the same level as potassium chloride aqueous solution with potassium chloride concentration of not less than 0.75 wt % and less than 0.8 wt %); off-taste suppressing effect ([2]; addition concentration 5 weight ppb (2.5 weight ppm with respect to potassium chloride)): +++ (intensity of the same level as potassium chloride aqueous solution with potassium chloride concentration of less than 0.1 wt %); intensity of off-tastes (bitter taste, metallic taste, harsh taste, astringent taste) derived from potassium chloride [2]: decreased
CCC1=C(O)C(=O)C(C)O1 (stereo not shown) [5-ethyl-4-hydroxy-2-methyl-3(2H)-furanone, reference compound]		could be hardly confirmed		− (intensity of the same level as potassium chloride aqueous solution with potassium chloride concentration of not less than 0.8 wt %)	off-taste suppressing effect [1, 11]: − (intensity of the same level as potassium chloride aqueous solution with potassium chloride concentration of not less than 0.8 wt %); off-taste suppressing effect [1, 8]: + (intensity of the same level as potassium chloride aqueous solution with potassium chloride concentration of not less than 0.75 wt % and less than 0.8 wt %)
CC(=O)O [acetic acid, reference compound]	− (intensity of the same level as potassium chloride aqueous solution with potassium chloride concentration of not less than 0.8 wt %)	could not be confirmed	did not show changes		
O=CO [formic acid, reference compound]	− (intensity of the same level as potassium chloride aqueous solution with potassium chloride concentration of not less than 0.8 wt %)	could not be confirmed	did not show changes		
CCC1OC(=O)C(O)=C1C (stereo not shown) [5-ethyl-3-hydroxy-4-methyl-2(5H)-furanone, reference compound]	− (intensity of the same level as potassium chloride aqueous solution with potassium chloride concentration of not less than 0.8 wt %)	could be hardly confirmed		− (intensity of the same level as potassium chloride aqueous solution with potassium chloride concentration of not less than 0.8 wt %)	off-taste suppressing effect [1, 9]: − (intensity of the same level as potassium chloride aqueous solution with potassium chloride concentration of not less than 0.8 wt %); off-taste suppressing effect [1, 10]: + (intensity of the same level as potassium chloride aqueous solution with potassium chloride concentration of not less than 0.75 wt % and less than 0.8 wt %); off-taste suppressing effect [1, 11]: + (intensity of the same level as potassium chloride aqueous solution with potassium chloride concentration of not less than 0.75 wt % and less than 0.8 wt %); off-taste suppressing effect [1, 8]: − (intensity of the same level as potassium chloride aqueous solution with potassium chloride concentration of not less than 0.8 wt %); off-taste suppressing effect [1, 7]: − (intensity of the same level as potassium chloride aqueous solution with potassium chloride concentration of not less than 0.8 wt %)
CCc1ccco1 [2-ethylfuran, reference compound]		could not be confirmed	did not show changes	− (intensity of the same level as potassium chloride aqueous solution with potassium chloride concentration of not less than 0.8 wt %)	
CCCCC(=O)O [pentanoic acid, reference compound]	− (intensity of the same level as potassium chloride aqueous solution with potassium chloride concentration of not less than 0.8 wt %)	could not be confirmed	did not show changes		
